Experimental data published in ChEMBL document CHEMBL1201862, “PubChem BioAssay data set” (2004).
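48-hour exposure; five concentrations; linearly interpolated endpoints. GI50: concentration for 50% inhibition of growth.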 Active and inactive are the calls of the source. No stated cut-off is given here; in the data, active = GI50 up to about 1.1 µM and inactive = higher.

Tests used:
Test in all cases: inhibition of tumour cell growth, NCI panel, 48 h
[1] = test system: HCT-116
[2] = test system: CAKI-1
[3] = test system: SF-268
[4] = test system: UO-31
[5] = test system: UACC-257
[6] = test system: SK-OV-3
[7] = test system: HT-29
[8] = test system: HL-60
[9] = test system: K562
[10] = test system: SNB-75
[11] = test system: SF-539
[12] = test system: NCI-H460
[13] = test system: SW-620
[14] = test system: SK-MEL-28
[15] = test system: A498

Measured: GI50

COC(=O)c1c(CC#N)cccc1CC#N
inactive: [1] > 100 µM | [2] > 100 µM | [3] > 100 µM | [4] > 100 µM | [5] > 100 µM | [6] > 100 µM | [7] > 100 µM | [8] > 100 µM | [9] > 100 µM | [10] > 100 µM | [11] > 100 µM | [12] > 100 µM | [13] > 100 µM

CC(=O)OC[C@]1(O)CC[C@@]23CC1C[C@@H]2CCC1C(C)(C)CCC[C@@]13C (some centres not stated)
inactive: [1] 11.9 µM | [2] 18.2 µM | [3] 14.9 µM | [4] 16.1 µM | [5] 15.8 µM | [6] 15.2 µM | [7] 13 µM | [8] 4.95 µM | [9] 4.76 µM | [10] 16.1 µM | [14] 14.8 µM | [11] 16.4 µM | [12] 14.7 µM | [13] 10.7 µM

O=C1CCC(=O)N1CNc1cccc(NCN2C(=O)CCC2=O)c1
inactive: [1] 64.3 µM | [3] 70 µM | [4] > 100 µM | [5] 71.6 µM | [7] > 100 µM | [8] 20.1 µM | [9] 45.6 µM | [10] 12.9 µM | [14] > 100 µM | [11] > 100 µM | [12] > 100 µM | [13] > 100 µM

COc1ccc2c(c1)[n+]([O-])c(C(=O)C/C(=N/NC(=O)C[N+](C)(C)C)C(=O)Nc1cccc(C)c1C)c(C)[n+]2[O-]
inactive: [1] > 100 µM | [2] > 100 µM | [3] > 100 µM | [4] > 100 µM | [5] 28.6 µM | [15] > 100 µM | [6] > 100 µM | [7] > 100 µM | [9] > 100 µM | [10] > 100 µM | [14] > 100 µM | [11] > 100 µM | [12] > 100 µM | [13] > 100 µM

COC(=O)OCC1OC(N2C(=O)NC(=O)C(Br)C2N=[N+]=[N-])CC1OC(=O)OC (configuration not stated)
inactive: [1] > 100 µM | [2] > 100 µM | [3] > 100 µM | [4] > 100 µM | [5] > 100 µM | [6] > 100 µM | [7] > 100 µM | [10] > 100 µM | [14] > 100 µM | [11] > 100 µM | [12] > 100 µM | [13] > 100 µM

C=C(C)CCOC(c1ccccc1)(c1ccccc1)c1ccccc1
inactive: [1] 18.7 µM | [2] 70.6 µM | [3] 47 µM | [4] 27.7 µM | [5] 25.4 µM | [6] > 100 µM | [7] 22.3 µM | [8] 31.5 µM | [9] > 100 µM | [10] 68.7 µM | [14] 42.7 µM | [11] 91 µM | [12] 29.1 µM | [13] 82.4 µM

CN(OC(=O)CC(=O)c1ccccc1)C(=O)Cc1ccccc1
inactive: [1] > 100 µM | [2] > 100 µM | [3] > 100 µM | [4] > 100 µM | [5] > 100 µM | [15] > 100 µM | [6] > 100 µM | [7] > 100 µM | [8] > 100 µM | [11] > 100 µM | [12] > 100 µM | [13] > 100 µM

O=C1c2ccccc2C(=O)N1C/C=N/NS(=O)(=O)c1ccc(F)cc1
inactive: [1] > 100 µM | [2] > 100 µM | [3] > 100 µM | [4] > 100 µM | [5] > 100 µM | [8] > 100 µM | [9] > 100 µM | [10] 59 µM | [11] > 100 µM | [13] > 100 µM

CCCCCCCCCCCCCCCCCC[N+](C)(C)Cc1ccc(C[N+](C)(C)CCCCCCCCCCCCCCCCCC)cc1
inactive: [1] 14.2 µM | [2] 21.2 µM | [3] 21.7 µM | [4] 27.7 µM | [5] 15.9 µM | [15] 22.8 µM | [6] 26.6 µM | [7] 18.7 µM | [9] 45.1 µM | [10] 3.15 µM | [14] 18.1 µM | [12] 17.6 µM | [13] 18.2 µM

Cc1ccc(C)c(NC(=O)CC/C(=N\NC(=O)C(N)=O)C(C)C(=O)c2ccc(O)cc2)c1 (configuration not stated)
inactive: [1] > 100 µM | [2] > 100 µM | [3] > 100 µM | [4] > 100 µM | [5] > 100 µM | [6] > 100 µM | [7] > 100 µM | [8] > 100 µM | [9] > 100 µM | [14] > 100 µM | [11] > 100 µM | [12] > 100 µM | [13] > 100 µM

O=C1NC2(C=Cc3c(ccc4ccccc34)O2)Oc2ccccc21 (configuration not stated)
inactive: [1] 12.7 µM | [3] 17.2 µM | [4] 1.76 µM | [7] 11.3 µM | [8] 4.81 µM | [9] 3.58 µM | [10] 15.1 µM | [14] 15.6 µM | [11] 15.5 µM | [12] 27.2 µM | [13] 15 µM

CN(C)c1ccc(/C=C2\Cc3ccccc3C2=O)cc1Br
inactive: [2] 64.1 µM | [3] 32.7 µM | [4] 36.6 µM | [5] 44.8 µM | [15] > 100 µM | [6] > 100 µM | [7] 34.8 µM | [9] 33 µM | [10] 38.5 µM | [14] 39 µM | [12] 53.6 µM | [13] 59.3 µM

C=C(CO)CC(O)c1cc(OC)ccc1OC (configuration not stated)
inactive: [2] > 100 µM | [3] > 100 µM | [4] > 100 µM | [5] > 100 µM | [6] > 100 µM | [7] > 100 µM | [8] > 100 µM | [9] > 100 µM | [10] > 100 µM | [14] > 100 µM | [11] > 100 µM | [12] > 100 µM | [13] > 100 µM

C=CC(=O)NCCSCCCOC1(C(=O)O)CC(O)C(NC(C)=O)C(C(O)C(O)CO)O1 (configuration not stated)
inactive: [1] > 100 µM | [4] > 100 µM | [5] > 100 µM | [6] > 100 µM | [7] > 100 µM | [8] > 100 µM | [9] > 100 µM | [14] > 100 µM | [11] > 100 µM | [12] > 100 µM | [13] > 100 µM

CCc1ccccc1NC(=O)C(=O)C(C(=O)c1ccc(OC)cc1)c1ccc(OC)cc1 (configuration not stated)
inactive: [1] > 100 µM | [2] > 100 µM | [3] > 100 µM | [4] > 100 µM | [5] > 100 µM | [15] > 100 µM | [6] > 100 µM | [7] > 100 µM | [8] > 100 µM | [9] > 100 µM | [11] > 100 µM | [12] > 100 µM | [13] > 100 µM
